Common to all, as to type: cell-based
Assay [1] deals with mantle cell lymphoma cell (Mino or JeKo-1). Kind of assay: Antiproliferative effect, MTS cell viability assay. The note with it: 72 h, mantle cell lymphoma cell (Mino or JeKo-1), MTS assay, read-out: IC50 (anti-proliferation). How it is done: Antiproliferative effect of the exemplary compounds was assessed in B-cell malignancy models.
To assess the effect of the exemplary compounds on cell viability in B-cell malignancy models by degradation of CDK4/6 proteins, Mino cells were treated with varying concentrations of exemplary compounds (0, 0.0001, 0.001, 0.01, 0.1, 1 μM) or positive control (palbociclib and abemaciclib). Under these conditions, cell viability was determined by an MTS assay. Cytotoxicity was assayed by the determination of reduced tetrazolium (formazan) created by metabolically active cells as detected at 490 nanometers (nm) absorbance using a microplate reader (BMG Labtech, Cary, NC, USA).
The exemplary compounds attenuated the viability of Mino cells in a concentration-dependent manner at 72 h post treatment. Results are shown in Table 1 and FIGS. 2-15 for each exemplary compound.
(Tetrazolium assays rely on reduction of a dye to a coloured formazan, in cell work by metabolically active cells.)

A further assay concerns the target T1, CDK4 (Homo sapiens, UniProt P11802).
T1 construct: endogenous in cells
Kind of assay: CDK4 degradation (DC50, Dmax).

A further assay concerns the target T2, CDK6 (Homo sapiens, UniProt Q00534).
T2 construct: endogenous in cells
In words: CDK6 degradation (DC50, Dmax).

Where only a bound is given, the exact number is not on record here.

T2 sequence (Q00534 whole entry): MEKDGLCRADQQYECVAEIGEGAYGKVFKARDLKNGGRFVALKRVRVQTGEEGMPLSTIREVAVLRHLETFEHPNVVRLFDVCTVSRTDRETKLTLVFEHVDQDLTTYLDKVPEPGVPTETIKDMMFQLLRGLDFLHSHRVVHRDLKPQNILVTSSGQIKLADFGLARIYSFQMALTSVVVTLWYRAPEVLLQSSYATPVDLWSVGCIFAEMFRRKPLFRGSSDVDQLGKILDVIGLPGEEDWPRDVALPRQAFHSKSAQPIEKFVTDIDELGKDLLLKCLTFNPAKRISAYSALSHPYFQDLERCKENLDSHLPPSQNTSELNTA
T1 sequence (P11802 whole entry): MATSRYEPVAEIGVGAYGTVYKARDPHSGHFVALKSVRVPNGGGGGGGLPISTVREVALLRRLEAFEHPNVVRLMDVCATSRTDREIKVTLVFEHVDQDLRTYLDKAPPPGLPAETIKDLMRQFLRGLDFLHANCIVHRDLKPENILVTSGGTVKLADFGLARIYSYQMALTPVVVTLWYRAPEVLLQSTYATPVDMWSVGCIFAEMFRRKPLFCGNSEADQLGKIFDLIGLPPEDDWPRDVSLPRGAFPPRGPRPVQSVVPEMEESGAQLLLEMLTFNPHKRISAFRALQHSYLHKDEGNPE

For orientation: DC50 means the concentration at which degradation of the target reaches its halfway point. High values mean degradation only at high concentration, low ones degradation at low concentration. By Dmax is commonly meant the greatest extent of degradation seen. Lower therefore signals shallow degradation. Take `CC(=O)c1c(C)c2cnc(Nc3ccc(N4CCN(CCN(C)c5cccc6c5C(=O)N(C5CCC(=O)NC5=O)C6=O)CC4)cn3)nc2n(C2CCCC2)c1=O` (stereo not shown) [Compound 61, 4-((2-(4-(6-((6-acetyl-8-cyclopentyl-5-methyl-7-oxo-7,8-dihydropyrido[2,3-d]pyrimidin-2-yl)amino)pyridin-3-yl)piperazin-1-yl)ethyl)(methyl)amino)-2-(2,6-dioxopiperidin-3-yl) isoindoline-1,3-dione]: the IC50 in assay [1] lay within 50 to 200 nM. In addition, at CDK4, the DC50 was 50 to 200 nM and the Dmax is more than 60%. Besides, at CDK6, the DC50 is 50 to 200 nM and the Dmax was more than 60%.

Regarding `CC(=O)c1c(C)c2cnc(Nc3ccc(N4CCN(CC5CCN(C(=O)N6CCC(CCN7CCN(c8ccc9c(c8)C(=O)N(C8CCC(=O)NC8=O)C9=O)CC7)CC6)CC5)CC4)cn3)nc2n(C2CCCC2)c1=O` (stereo not shown) [Compound 83, 5-(4-(2-(1-(4-((4-(6-((6-acetyl-8-cyclopentyl-5-methyl-7-oxo-7,8-dihydropyrido[2,3-d]pyrimidin-2-yl)amino)pyridin-3-yl)piperazin-1-yl)methyl)piperidine-1-carbonyl)piperidin-4-yl)ethyl)piperazin-1-yl)-2-(2,6-dioxopiperidin-3-yl) isoindoline-1,3-dione], the IC50 in assay [1] is more than 200 nM. On CDK4, this compound registered a half-maximal degradation concentration (DC50) of more than 200 nM and a Dmax of more than 50%. On CDK6, this compound gave a DC50 of more than 200 nM and a Dmax of more than 50%.

Regarding `CC(=O)c1c(C)c2cnc(Nc3ccc(N4CCN(C(=O)N5CCN(CCC6CCN(c7ccc8c(c7)C(=O)N(C7CCC(=O)NC7=O)C8=O)CC6)CC5)CC4)cn3)nc2n(C2CCCC2)c1=O` (stereo not shown) [Compound 23, 5-(4-(2-(4-(4-(6-((6-acetyl-8-cyclopentyl-5-methyl-7-oxo-7,8-dihydropyrido[2,3-d]pyrimidin-2-yl)amino)pyridin-3-yl)piperazine-1-carbonyl)piperazin-1-yl)ethyl)piperidin-1-yl)-2-(2,6-dioxopiperidin-3-yl) isoindoline-1,3-dione], the IC50 in assay [1] was more than 200 nM. At CDK4, this compound showed a DC50 of more than 200 nM and a Dmax of more than 60%. On CDK6, the DC50 is more than 200 nM and the Dmax was more than 60%.

For `CC(=O)c1c(C)c2cnc(Nc3ccc(N4CCN(CC5CCN(C(=O)N6CCC(N7CCN(c8ccc9c(c8)C(=O)N(C8CCC(=O)NC8=O)C9=O)CC7)CC6)CC5)CC4)cn3)nc2n(C2CCCC2)c1=O` (stereo not shown) [Compound 89, 5-(4-(1-(4-((4-(6-((6-acetyl-8-cyclopentyl-5-methyl-7-oxo-7,8-dihydropyrido[2,3-d]pyrimidin-2-yl)amino)pyridin-3-yl)piperazin-1-yl)methyl)piperidine-1-carbonyl)piperidin-4-yl)piperazin-1-yl)-2-(2,6-dioxopiperidin-3-yl)isoindoline-1,3-dione], the IC50 in assay [1] was in the range of 50 to 200 nM. For the same compound, the results for the DC50 at CDK4 and on CDK6 were 50 to 200 nM and more than 200 nM, respectively. Besides, the Dmax on CDK4 and on CDK6 was more than 60% throughout.

`CC(=O)c1c(C)c2cnc(Nc3ccc(N4CCN(C(=O)N5CCC(CN6CCN(c7ccc8c(c7)C(=O)N(C7CCC(=O)NC7=O)C8=O)CC6)CC5)CC4)cn3)nc2n(C2CCCC2)c1=O` (stereo not shown) [Compound 11]: the IC50 in assay [1] lay in the range of 50 to 200 nM. On CDK4, the DC50 lay within 50 to 200 nM and the Dmax was more than 60%. Also, at CDK6, the DC50 is 50 to 200 nM and the greatest degradation seen (Dmax) is more than 60%.

`CC(=O)c1c(C)c2cnc(Nc3ccc(N4CCN(C(=O)N5CCC(CCC6CCN(c7ccc8c(c7)C(=O)N(C7CCC(=O)NC7=O)C8=O)CC6)CC5)CC4)cn3)nc2n(C2CCCC2)c1=O` (stereo not shown) [Compound 25, 5-(4-(2-(1-(4-(6-((6-acetyl-8-cyclopentyl-5-methyl-7-oxo-7,8-dihydropyrido[2,3-d]pyrimidin-2-yl)amino)pyridin-3-yl)piperazine-1-carbonyl)piperidin-4-yl)ethyl)piperidin-1-yl)-2-(2,6-dioxopiperidin-3-yl)isoindoline-1,3-dione]: the IC50 in assay [1] is 50 to 200 nM. For the same compound, the DC50 on CDK4 was more than 200 nM; at CDK6, 50 to 200 nM. Moreover, the Dmax at CDK4 and at CDK6 was more than 60% throughout.

For `Cc1nc2c(F)cc(-c3nc(Nc4ccc(CC5CCN(CC6CCN(c7ccc(C(=O)NC8CCC(=O)NC8=O)cc7)CC6)CC5)cn4)ncc3F)cc2n1C(C)C` (stereo not shown) [Compound 159, N-(2,6-dioxopiperidin-3-yl)-4-(4-((4-((6-((5-fluoro-4-(4-fluoro-1-isopropyl-2-methyl-1H-benzo[d]imidazol-6-yl)pyrimidin-2-yl)amino)pyridin-3-yl)methyl)piperidin-1-yl)methyl)piperidin-1-yl)benzamide], the IC50 in assay [1] is less than 50 nM. At CDK4, this compound yielded a DC50 of less than 50 nM and a Dmax of more than 80%. In addition, at CDK6, the DC50 was less than 50 nM and the Dmax was more than 80%.

On to `Cc1nc2c(F)cc(-c3nc(Nc4ccc(CN5CCN(C6CN(c7cccc8c7CN(C7CCC(=O)NC7=O)C8=O)C6)CC5)cn4)ncc3F)cc2n1C(C)C` (stereo not shown) [Compound 99, 3-(4-(3-(4-((6-((5-fluoro-4-(4-fluoro-1-isopropyl-2-methyl-1H-benzo[d]imidazol-6-yl)pyrimidin-2-yl)amino)pyridin-3-yl)methyl)piperazin-1-yl)azetidin-1-yl)-1-oxoisoindolin-2-yl)piperidine-2,6-dione], for which the IC50 in assay [1] lay in the range of 50 to 200 nM. At CDK4, this compound yielded a DC50 of 50 to 200 nM and a Dmax of more than 60%. Besides, on CDK6, the DC50 is 50 to 200 nM and the Dmax was more than 60%.

`Cc1nc2c(F)cc(-c3nc(Nc4ccc(CN5CCN(C6CN(c7ccc8c(c7)C(=O)N(C7CCC(=O)NC7=O)C8=O)C6)CC5)cn4)ncc3F)cc2n1C(C)C` (stereo not shown) [Compound 147, 2-(2,6-dioxopiperidin-3-yl)-5-(3-(4-((6-((5-fluoro-4-(4-fluoro-1-isopropyl-2-methyl-1H-benzo[d]imidazol-6-yl)pyrimidin-2-yl)amino)pyridin-3-yl)methyl)piperazin-1-yl)azetidin-1-yl)isoindoline-1,3-dione]: the IC50 in assay [1] fell in the range of 50 to 200 nM. At CDK4, this compound gave a DC50 of less than 50 nM and a Dmax of more than 60%. On CDK6, this compound registered a DC50 of 50 to 200 nM and a Dmax of more than 60%.

In the case of `Cc1nc2c(F)cc(-c3nc(Nc4ccc(CN5CCN(CC6CCN(c7ccc(NC8CCC(=O)NC8=O)cc7)CC6)CC5)cn4)ncc3F)cc2n1C(C)C` (stereo not shown) [Compound 152, 3-((4-(4-((4-((6-((5-fluoro-4-(4-fluoro-1-isopropyl-2-methyl-1H-benzo[d]imidazol-6-yl)pyrimidin-2-yl)amino)pyridin-3-yl)methyl)piperazin-1-yl)methyl)piperidin-1-yl)phenyl)amino) piperidine-2,6-dione], in assay [1], the IC50 is less than 50 nM. At CDK4, this compound returned a DC50 of less than 50 nM and a Dmax of more than 80%. On CDK6, the DC50 lay within 50 to 200 nM and the Dmax is more than 80%.

Take `CC(=O)c1c(C)c2cnc(Nc3ccc(N4CCN(CCN5CCN(C(=O)Nc6ccc7c(c6)CN(C6CCC(=O)NC6=O)C7=O)CC5)CC4)cn3)nc2n(C2CCCC2)c1=O` (stereo not shown) [Compound 44]: the IC50 in assay [1] lay in the range of 50 to 200 nM. On CDK4, this compound returned a DC50 of 50 to 200 nM and a Dmax of more than 60%. On CDK6, this compound showed a DC50 of 50 to 200 nM and a Dmax of more than 60%.

For `Cc1nc2c(F)cc(-c3nc(Nc4ccc(CN5CCN(CC6CN(c7ccc8c(c7)CN(C7CCC(=O)NC7=O)C8=O)C6)CC5)cn4)ncc3F)cc2n1C(C)C` (stereo not shown) [Compound 95, 3-(5-(3-((4-((6-((5-fluoro-4-(4-fluoro-1-isopropyl-2-methyl-1H-benzo[d]imidazol-6-yl)pyrimidin-2-yl)amino)pyridin-3-yl)methyl)piperazin-1-yl)methyl)azetidin-1-yl)-1-oxoisoindolin-2-yl)piperidine-2,6-dione], the IC50 in assay [1] is less than 50 nM. On CDK4, this compound yielded a DC50 of less than 50 nM and a Dmax of more than 80%. Besides, on CDK6, the 50% degradation concentration (DC50) was less than 50 nM and the Dmax is more than 80%.

Regarding `Cc1nc2c(F)cc(-c3nc(Nc4ccc(CN5CCN(C6CCN(c7ccc(NC8CCC(=O)NC8=O)cc7)CC6)CC5)cn4)ncc3F)cc2n1C(C)C` (stereo not shown) [Compound 168, 3-((4-(4-(4-((6-((5-fluoro-4-(4-fluoro-1-isopropyl-2-methyl-1H-benzo[d]imidazol-6-yl)pyrimidin-2-yl)amino)pyridin-3-yl)methyl)piperazin-1-yl)piperidin-1-yl)phenyl)amino) piperidine-2,6-dione], the IC50 in assay [1] was less than 50 nM. Also, the DC50 on CDK4 is 50 to 200 nM; on CDK6, less than 50 nM. Further, the Dmax at CDK4 and on CDK6 was more than 80% throughout.

Take `CC(=O)c1c(C)c2cnc(Nc3ccc(C4CCN(C(=O)C5CN(c6ccc7c(c6)CN(C6CCC(=O)NC6=O)C7=O)C5)CC4)cn3)nc2n(C2CCCC2)c1=O` (stereo not shown) [Compound 130, 3-(5-(3-(4-(6-((6-acetyl-8-cyclopentyl-5-methyl-7-oxo-7,8-dihydropyrido[2,3-d]pyrimidin-2-yl)amino)pyridin-3-yl)piperidine-1-carbonyl)azetidin-1-yl)-1-oxoisoindolin-2-yl)piperidine-2,6-dione]: in assay [1], the IC50 was less than 50 nM. On CDK4, this compound returned a DC50 of 50 to 200 nM and a Dmax of more than 80%. On CDK6, this compound registered a DC50 of less than 50 nM and a Dmax of more than 60%.

The values above are taken from patent US20230295118A1 (EnhancedBio Inc., priority 2022, published 2023).
